Experiments:
[1] = tested on: F. oxysporum f. sp. cubense; experiment: Panama disease analysis of field soil samples after metam sodium injection (plating on Komada medium); format: in vivo, Fusarium oxysporum f. sp. cubense Tropical Race 4; conditions: any of the treated groups; any day post application
Protocol: (§1) Metam Sodium Application. Metam sodium 510 SL (equivalent to 42% w/w) was applied to soil at the following doses: 0 liters per hectare (L/ha), 750 L/ha, 1500 L/ha, 2250 L/ha, 3000 L/ha.
(§2) Prior to injection, soil was prepared using a rototiller to break the soil structure from 0 cm to 80 cm deep, allowing for the smooth and even injection application by an injection machine. The soil was then leveled and made uniform, and the metam sodium was applied at two depths: 30 cm and 60 cm, using injection methods. The temperature was at a minimum of 10° C. and soil humidity was between 50 and 60% holding capacity, allowing the applied product to transform from metam sodium (liquid) to MITC (gas).
(§3) The application was made using an injection machine wherein the machine lowered shanks and began moving forward such that the shanks lowered to a depth of 60 cm and injectors applied the metam sodium into the soil. When the injection at 60 cm was complete, the process was repeated for the entire field at 30 cm. The treated soil in the field was then sealed using a packer roller (which was part of the injection machinery, located at the back end of the machine), after each application.
Soil Analysis. Soil samples were obtained at 20, 40, and 60 cm before application and every 24 hours beginning 48 hours after application, for seven days.
Plant Pathology Analysis. […]

Foc TR4 chlamydospores = experiment: In vitro efficacy of metam sodium on Foc TR4 chlamydospores (colony growth on PDA plates); format: cell-based, Fusarium oxysporum f. sp. cubense Tropical Race 4
Protocol: Foc TR4 chlamydospores were extracted from infested soil and incubated with a dilution series of metam sodium for 5 min and 60 min at room temperature. Thereafter, the samples were diluted 10× to get reduction of the treatment and sufficient dilution of chlamydospores to avoid lack of resolution when grown on plate. Aliquots of 100 μl were plated on PDA plates in duplicate and incubated for 3 days at 25° C. Plates were photographed and scored.

Cavendish banana plants = experiment: Field trial: banana plant growth and development after metam sodium soil injection at 30 cm and 60 cm; format: in vivo, Musa (Cavendish banana)
Protocol: as §1, §2, §3
Plant Selection and Transplantation. Cavendish banana plants were used for this investigation. In order to avoid plants already contaminated by other soil, all plants were produced in vitro using art-recognized methods. Plants were transplanted into the field 14 days after the final soil reading was taken (21 days after treatment).
Data Gathering. Data were gathered at monthly intervals beginning three months after banana plants were transplanted. A total of three data collection sessions were conducted. Data including the number of leaves, plant height, and girth size were collected.

[2] = 750 L/ha, six months after treatment
[3] = 1500 L/ha, six months after treatment
[4] = 2250 L/ha, six months after treatment
[5] = 3000 L/ha, six months after treatment

CNC(=S)S [metam sodium, sodium N-methyldithiocarbamate]
soil contamination: Foc TR4 detection [1]: No Foc TR4 was detected
reducing the number of surviving chlamydospores, measured as growing colonies (Foc TR4 chlamydospores; 100× dilution, prolonged incubation (60 min vs 5 min)): more effective
efficacy on Foc TR4 colony growth (Foc TR4 chlamydospores; dilution of 10×, incubation time 5 minutes): effective
efficacy on Foc TR4 colony growth (Foc TR4 chlamydospores; dilution of 100×, 5 and 60 minutes): less effective
reduction in viability of Foc TR4 chlamydospores (Foc TR4 chlamydospores; first test, dilutions from 1000 up to 10×10^6-fold, 60 min): No significant reduction in viability
efficacy against Foc TR4 chlamydospores (Foc TR4 chlamydospores; in vitro conditions, dependent on high concentrations): effective against Foc TR4 chlamydospores
efficacy on chlamydospore survival (Foc TR4 chlamydospores; second test, 10× and 100× dilutions): (partially) effective
number of chlamydospores that survived (Foc TR4 chlamydospores; second test, dilutions of 1000× and more): did not affect the number of chlamydospores that survived
average girth size of banana plant, increase (Cavendish banana plants; 750 L/ha): ~1 cm
average height of banana plant, increase (Cavendish banana plants; 750 L/ha): ~5 cm
percent of plants at either shooting or bagging stage (Cavendish banana plants; [2]): 11%
percent of plants at shooting stage (Cavendish banana plants; [2]): 9%
plants reaching bagging stage (Cavendish banana plants; [2]): did not have a meaningful effect
average girth size of banana plant, increase (Cavendish banana plants; 1500-3000 L/ha): 4-6 cm
average height of banana plant, increase (Cavendish banana plants; 1500-3000 L/ha): 20-23 cm
percent of plants at either shooting or bagging stage (Cavendish banana plants; [3]): 28%
percent of plants at shooting stage (Cavendish banana plants; [3]): 10%
percent of plants at bagging stage (Cavendish banana plants; 1500 to 3000 L/ha, six months after treatment): 11-19%
percent of plants at either shooting or bagging stage (Cavendish banana plants; [4]): 27%
percent of plants at shooting stage (Cavendish banana plants; [4]): 17%
percent of plants at either shooting or bagging stage (Cavendish banana plants; [5]): 35%
percent of plants at shooting stage (Cavendish banana plants; [5]): 22%
average number of leaves, increase (Cavendish banana plants; regardless of dose applied (750-3000 L/ha), vs 0 L/ha): roughly 1.5 fold

Source: patent publication US20230143490A1, “METHODS OF TREATING SOIL” (Taminco BV, priority 2020, published 2023)
